Converted amounts (≈) assume the structure as drawn.
Key:
Assay type in all cases: functional
Staphylococcus aureus [1] = assay: In vitro antibacterial activity against Staphylococcus aureus 663 strain
Staphylococcus aureus [2] = assay: In vitro antibacterial activity against Staphylococcus aureus 853 strain
Escherichia coli [3] = assay: In vitro antibacterial activity against Escherichia coli 1850 strain
Pseudomonas aeruginosa = assay: In vitro antibacterial activity against Pseudomonas aeruginosa 1911 strain
Escherichia coli [4] = assay: In vitro antibacterial activity against Escherichia coli 1919 strain
Enterococcus faecalis = assay: In vitro antibacterial activity against Enterococcus faecalis 850 strain

## C[C@@H](O)[C@H]1C(=O)N2C(C(=O)O)=C3[C@@H](N)CCC[C@@H]3[C@H]12
Staphylococcus aureus [1]
  MIC: 0.25 µg/mL (≈ 0.939 µM)
Staphylococcus aureus [2]
  MIC: 0.25 µg/mL (≈ 0.939 µM)
Escherichia coli [3]
  MIC: 1 µg/mL (≈ 3.76 µM)
Pseudomonas aeruginosa
  MIC: 4 µg/mL (≈ 15 µM)
Escherichia coli [4]
  MIC: 0.5 µg/mL (≈ 1.88 µM)
Enterococcus faecalis
  MIC: 16 µg/mL (≈ 60.1 µM)

## C[C@@H](O)[C@H]1C(=O)N2C(C(=O)O)=C3[C@H](CCC[C@@H]3N(C)C)[C@H]12
Staphylococcus aureus [1]
  MIC: 0.25 µg/mL (≈ 0.849 µM)
Staphylococcus aureus [2]
  MIC: 0.25 µg/mL (≈ 0.849 µM)
Escherichia coli [3]
  MIC: 2 µg/mL (≈ 6.79 µM)
Pseudomonas aeruginosa
  MIC: 8 µg/mL (≈ 27.2 µM)
Escherichia coli [4]
  MIC: 1 µg/mL (≈ 3.4 µM)
Enterococcus faecalis
  MIC: > 32 µg/mL

## C[C@@H](O)[C@H]1C(=O)N2C(C(=O)O)=C3[C@@H](NC4CCCC4)CCC[C@@H]3[C@H]12
Staphylococcus aureus [1]
  MIC: 8 µg/mL (≈ 23.9 µM)
Staphylococcus aureus [2]
  MIC: 4 µg/mL (≈ 12 µM)
Escherichia coli [3]
  MIC: 8 µg/mL (≈ 23.9 µM)
Pseudomonas aeruginosa
  MIC: 32 µg/mL (≈ 95.7 µM)
Escherichia coli [4]
  MIC: 32 µg/mL (≈ 95.7 µM)
Enterococcus faecalis
  MIC: 32 µg/mL (≈ 95.7 µM)

## CN[C@H]1CCC[C@H]2C1=C(C(=O)O)N1C(=O)[C@H]([C@@H](C)O)[C@@H]21
Staphylococcus aureus [1]
  MIC: 0.25 µg/mL (≈ 0.892 µM)
Staphylococcus aureus [2]
  MIC: 0.5 µg/mL (≈ 1.78 µM)
Escherichia coli [3]
  MIC: 2 µg/mL (≈ 7.13 µM)
Pseudomonas aeruginosa
  MIC: 4 µg/mL (≈ 14.3 µM)
Escherichia coli [4]
  MIC: 0.5 µg/mL (≈ 1.78 µM)
Enterococcus faecalis
  MIC: 16 µg/mL (≈ 57.1 µM)

## CO[C@H]1CCC[C@H]2C1=C(C(=O)[O-])N1C(=O)[C@H]([C@@H](C)O)[C@@H]21.[Na+] [SANFETRINEM SODIUM]
Staphylococcus aureus [1]
  MIC: 0.25 µg/mL
Staphylococcus aureus [2]
  MIC: 0.25 µg/mL
Escherichia coli [3]
  MIC: 0.5 µg/mL
Pseudomonas aeruginosa
  MIC: > 32 µg/mL
Escherichia coli [4]
  MIC: 0.5 µg/mL
Enterococcus faecalis
  MIC: 1 µg/mL

— ChEMBL document CHEMBL1129122, “Synthesis and antimicrobial activity of 4-amino trinems” (1996)
